# Data from patent US20260158043A1, “STEROID AS A MODULATOR OF GABAA RECEPTOR” (UMECRINE COGNITION AB, priority 2021, published 2026).
# Where “and” joins values, the source holds several entries; their conditions need not be identical. Identical values can stand only once. Entries after “also recorded” stand apart in the source; their conditions may differ.
# Key:
# [1] = molecular target: T1, human α3β3γ2 GABAA receptor subtype (Homo sapiens, UniProt P18507+P28472+P34903); experiment: Patch-clamp (Dynaflow) of GABA-mediated current in HEK-293 cells expressing α3β3γ2L GABAA receptor; assay type: cell-based
# T1 construct: expressed in transfected cells
# T1 sequence (P34903 29-492): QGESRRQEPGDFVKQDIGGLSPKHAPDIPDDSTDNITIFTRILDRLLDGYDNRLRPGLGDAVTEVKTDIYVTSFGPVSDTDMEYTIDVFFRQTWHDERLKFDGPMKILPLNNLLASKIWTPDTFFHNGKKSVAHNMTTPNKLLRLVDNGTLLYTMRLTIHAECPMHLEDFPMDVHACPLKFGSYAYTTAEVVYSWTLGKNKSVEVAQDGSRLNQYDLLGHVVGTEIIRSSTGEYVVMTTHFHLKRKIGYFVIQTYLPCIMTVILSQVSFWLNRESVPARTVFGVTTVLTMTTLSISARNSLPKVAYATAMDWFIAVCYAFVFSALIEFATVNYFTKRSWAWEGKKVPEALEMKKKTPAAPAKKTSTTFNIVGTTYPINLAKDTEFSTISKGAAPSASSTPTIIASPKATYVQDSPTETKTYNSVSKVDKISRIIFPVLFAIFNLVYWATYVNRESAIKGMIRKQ
# T1 sequence (P28472 26-473): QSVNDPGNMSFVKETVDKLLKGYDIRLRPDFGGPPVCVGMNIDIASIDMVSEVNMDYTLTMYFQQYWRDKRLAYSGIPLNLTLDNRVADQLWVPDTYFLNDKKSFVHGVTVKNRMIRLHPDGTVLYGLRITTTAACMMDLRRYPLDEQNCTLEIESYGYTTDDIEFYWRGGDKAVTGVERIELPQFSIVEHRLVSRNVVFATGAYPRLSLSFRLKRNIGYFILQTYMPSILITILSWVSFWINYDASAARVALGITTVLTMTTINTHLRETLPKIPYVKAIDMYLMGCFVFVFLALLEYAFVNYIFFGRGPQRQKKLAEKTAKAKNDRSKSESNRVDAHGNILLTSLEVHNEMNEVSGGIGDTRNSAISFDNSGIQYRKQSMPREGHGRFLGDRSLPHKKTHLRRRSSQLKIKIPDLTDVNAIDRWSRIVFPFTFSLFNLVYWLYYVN
# T1 sequence (P18507 40-475): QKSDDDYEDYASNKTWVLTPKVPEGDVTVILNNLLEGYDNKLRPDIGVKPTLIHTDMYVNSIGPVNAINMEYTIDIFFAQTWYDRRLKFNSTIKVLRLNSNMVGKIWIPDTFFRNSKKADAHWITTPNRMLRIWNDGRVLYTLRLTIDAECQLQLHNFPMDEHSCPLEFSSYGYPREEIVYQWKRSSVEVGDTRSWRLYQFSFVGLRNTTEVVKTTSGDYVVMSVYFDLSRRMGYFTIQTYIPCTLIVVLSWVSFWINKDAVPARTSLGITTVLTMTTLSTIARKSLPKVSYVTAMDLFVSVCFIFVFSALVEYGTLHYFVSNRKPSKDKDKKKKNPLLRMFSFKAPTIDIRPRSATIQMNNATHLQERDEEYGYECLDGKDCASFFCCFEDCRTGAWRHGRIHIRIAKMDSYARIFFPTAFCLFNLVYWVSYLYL
# Excerpt: (§1) Aim: To investigate the effect of 3α-ethynyl-3β-hydroxy-5α-androstan-17-one on the GABAA receptor function both in absence and in presence of the GAMS tetrahydrodeoxycorticosterone (THDOC) by the Dynaflow™ system (Fluicell) on HEK-293 cells recombinantly expressing human α1β2γ2L GABAA receptor or human α3β3γ2 GABAA receptor subtype. In these tests the protocol was optimized to be similar to the physiological conditions in the synaptic cleft.
# (§2) Preparation of cell lines: Cell lines permanently expressing a functional human GABAA receptor was made as follows. The GABAA receptor subunits α1β2γ2L or α3β3γ2 including introduced Kozac sequences just before the start codons were subcloned into mammalian expression vectors comprising Geneticin, Hygromycin B, and Zeocin resistance, respectively. A HEK-293 cell line stably expressing the three GABAA receptor subunits (α1β2γ2L, α3β3γ2) separately for α1β2γ2L and α3β3γ2 subunit composition was produced by transfection of the subunits one at a time. The transfection was followed by selection with the appropriate antibiotics, cell separation with the use of subunit specific antibodies (β2 and γ2, Abcam, Upstate/Chemicon/Milipore, Sigma Aldrich), and production of single cell colonies. Produced cell lines were analysed with immunocytochemistry for the three GABAA receptor subunits, followed by selection of a suitable cell line showing for the GABAA receptor normal and good reactivity towards GABA and THDOC.
# (§3) HEK-293 cells (obtained from Pasteur Institute, Paris, France), permanently transfected with the human 1β2γ2L or α3β3γ2 GABAA receptor subtypes, were seeded at a density of 3×10^4/25 cm^2 in a culture flask. The transfected cells were used for patch-clamp experiments 3 days after seeding. When using the cells for patch-clamp experiments the cells were washed twice with oxygen-bubbled EC-solution (see below). About 5 mL EC was then added and the cells were kept in the incubator for about 15 minutes. After 15 minutes the cells came loose from the bottom of the flask and were separated by carefully sucking a couple of times with a Pasteur pipette.
# (§4) Dynaflow™ system with Resolve chips (Fluicell) was used for all patch-clamp experiments. The DF-16 Proll chips (Fluicell) used have non-sticky inserts for the wells. The channel width was 150 μm and the height 50 μm. The well volume was 280 μL. Run time at the […] is […]. The pump settings were as follow: Omnifix 2 mL syringe with inner diameter of 9.65 mm was used. The syringe pump flow rate for DF-16 Pro II chip was 26 μL/min.
# Steroids and GABA: GABA (Sigma Aldrich) was dissolved in EC-solution by ultrasound for about 40 minutes to the concentration of 10 mM in room temperature. All steroids were dissolved to the concentration of 6 mM in DMSO. The DMSO concentration was 0.1% in all end-solutions, including the wash solution (EC) and the solution with GABA alone. End-solutions are the solutions added into the wells of the chip.
# Electrophysioloqy: Patch electrodes were pulled from 1.5 mm O.D., 0.86 mm I.D. borosilicate capillary glass without filament. […] The intracellular solution consisted of (in mM): 140 Cs-gluconate, 3.0 NaCl, 1.2 MgCl2, 1.0 EGTA, 10 HEPES. pH was adjusted to 7.2 with CsOH. The extracellular (EC) solution used during recordings contained (in mM): 137 NaCl, 5.0 KCl, 1.0 CaCl2), 1.2 MgCl2, 10 HEPES, 10 glucose. pH was adjusted with NaOH to 7.4. All chemicals in the intracellular and extracellular solutions were obtained from Sigma-Aldrich. After compensating for the liquid junction potential, a steady holding potential of −17 mV was used in all experiments. In physiological conditions the HEK-293 has a resting potential at −40 mV and a low concentration of chloride ions inside the cell. By using the holding potential of −17 mV and the intracellular solution with low chloride ion concentration the chloride ions flux into the cell when the receptors are activated. […]
# [2] = molecular target: T2, human α1β2γ2L GABAA receptor (Homo sapiens, UniProt P14867+P18507+P47870); experiment: Patch-clamp (Dynaflow) of GABA-mediated current in HEK-293 cells expressing α1β2γ2L GABAA receptor; assay type: cell-based
# T2 construct: expressed in transfected cells
# T2 sequence (P14867 28-456): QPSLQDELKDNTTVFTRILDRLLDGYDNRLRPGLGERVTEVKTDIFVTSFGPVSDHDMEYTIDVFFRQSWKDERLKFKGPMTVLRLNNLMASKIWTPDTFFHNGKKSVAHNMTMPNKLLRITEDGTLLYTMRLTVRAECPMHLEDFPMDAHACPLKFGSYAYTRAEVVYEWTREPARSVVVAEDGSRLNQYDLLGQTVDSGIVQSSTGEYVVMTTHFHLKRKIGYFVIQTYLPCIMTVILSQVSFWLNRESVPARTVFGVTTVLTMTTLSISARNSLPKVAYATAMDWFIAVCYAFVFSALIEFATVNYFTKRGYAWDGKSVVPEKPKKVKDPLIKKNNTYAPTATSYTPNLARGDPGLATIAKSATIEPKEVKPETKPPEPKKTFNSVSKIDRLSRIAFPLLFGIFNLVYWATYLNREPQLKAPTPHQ
# T2 sequence (P47870 25-512 limits assumed): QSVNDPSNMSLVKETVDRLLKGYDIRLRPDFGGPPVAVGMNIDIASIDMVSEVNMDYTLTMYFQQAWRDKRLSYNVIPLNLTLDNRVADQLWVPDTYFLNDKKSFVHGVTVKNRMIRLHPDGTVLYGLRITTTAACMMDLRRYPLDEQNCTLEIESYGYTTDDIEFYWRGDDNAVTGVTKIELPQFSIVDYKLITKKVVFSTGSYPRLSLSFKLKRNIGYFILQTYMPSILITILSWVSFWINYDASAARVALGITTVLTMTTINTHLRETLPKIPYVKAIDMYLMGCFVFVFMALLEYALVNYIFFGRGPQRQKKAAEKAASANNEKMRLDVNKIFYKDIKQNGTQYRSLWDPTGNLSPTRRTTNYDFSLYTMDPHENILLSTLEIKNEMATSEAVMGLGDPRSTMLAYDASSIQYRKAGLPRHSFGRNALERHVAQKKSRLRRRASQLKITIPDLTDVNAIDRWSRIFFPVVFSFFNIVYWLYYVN
# T2 sequence (P18507 40-475): as the sequence (P18507 40-475) above
# Excerpt: as §1, §2, §3, §4
# Steroids and GABA: GABA (Sigma Aldrich) was dissolved in EC-solution by ultrasound for about 40 minutes to the concentration of 10 mM in room temperature. All steroids were dissolved to the concentration of 6 mM in DMSO. […]
# [3] = Weight increase in growing male rats, experiment 2 (10 days s.c., with progesterone + estradiol); assay type: in vivo, Male Wistar rats; conditions: for Weight difference compared to vehicle (Mean±SE) / Weight difference versus E+P control rats (Mean±SE): 10 days, n=9
# Method: Animals: Male Wistar rats were kept in group cages, with three animals per cage, from delivery and throughout the period of experiments. The individual animals were marked so that they could be identified throughout the experiment duration. The animals weight an average of 152 g upon arrival. A reversed light dark (12:12 h) cycle was used with the dark period onset at 0600 hrs. Altogether fifty-six (56) rats were used in this study (experiment 1+2). The animals were delivered from the breeder Taconic (Denmark). The study protocol was approved by the Regional Ethics Committee of Umea University, Sweden.
# Feeding: Standard chow and water were available ad libitum. A reversed 12-h dark-light cycle with lights off at 10.00 am and lights on at 22.00 pm was used. For identification, the rats were marked with a permanent marker on the tail. To avoid the endogenous allopregnanolone fluctuations that are present in the oestrous cycle of female rats, male rats were chosen (Frye et al. 2000). The animals were allowed to acclimatize for at least 3 weeks before start of the experimental sessions. During this period, the rats were repeatedly handled and allowed habituation to the new environment and to all new procedures, to minimize stress during the experiments.
# After 14 days of triad housing, handling and injection training of the animals, the animals were treated for 5 days with IV injections in experiment 1 and 10 days with a daily subcutaneous injection of the assigned treatment in experiment 2 (Table 3 and 4). The injections were given at 08.00 every morning. The animals were weighed the day before onset of the treatment and at the last day of injection i.e. on the 5th or 10th day of treatment. Weight was taken at the time of the last injection. […] The results are shown in FIG. 2 (experiment 1) and FIG. 3 (experiment 2), respectively.
# GABAA receptor = conditions: taught in WO 09/142594, table 3; cited from earlier work
# [4] = molecular target: T3, human α4β3δ GABAA receptor (Homo sapiens, UniProt O14764+P28472+P48169); experiment: Patch-clamp (Dynaflow) of GABA-mediated current at α4β3δ GABAA receptor; assay type: cell-based; conditions: agonist effect
# T3 construct: expressed in transfected cells
# T3 sequence (P48169 36-554): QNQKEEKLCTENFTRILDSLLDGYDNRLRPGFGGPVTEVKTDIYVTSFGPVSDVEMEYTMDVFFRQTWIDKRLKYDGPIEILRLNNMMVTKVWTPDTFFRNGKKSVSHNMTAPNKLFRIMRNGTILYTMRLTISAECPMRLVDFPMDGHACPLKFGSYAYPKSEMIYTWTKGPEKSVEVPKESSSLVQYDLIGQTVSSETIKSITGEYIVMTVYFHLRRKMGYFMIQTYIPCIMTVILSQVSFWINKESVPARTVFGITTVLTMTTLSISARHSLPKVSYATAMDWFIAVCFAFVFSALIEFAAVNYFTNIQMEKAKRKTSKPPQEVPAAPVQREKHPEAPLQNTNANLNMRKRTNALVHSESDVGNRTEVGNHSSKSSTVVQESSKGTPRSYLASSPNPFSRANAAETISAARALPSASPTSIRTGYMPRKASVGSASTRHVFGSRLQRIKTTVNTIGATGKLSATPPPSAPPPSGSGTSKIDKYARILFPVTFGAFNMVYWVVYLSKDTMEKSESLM
# T3 sequence (P28472 26-473): as the sequence (P28472 26-473) above
# T3 sequence (O14764 17-452 limits assumed): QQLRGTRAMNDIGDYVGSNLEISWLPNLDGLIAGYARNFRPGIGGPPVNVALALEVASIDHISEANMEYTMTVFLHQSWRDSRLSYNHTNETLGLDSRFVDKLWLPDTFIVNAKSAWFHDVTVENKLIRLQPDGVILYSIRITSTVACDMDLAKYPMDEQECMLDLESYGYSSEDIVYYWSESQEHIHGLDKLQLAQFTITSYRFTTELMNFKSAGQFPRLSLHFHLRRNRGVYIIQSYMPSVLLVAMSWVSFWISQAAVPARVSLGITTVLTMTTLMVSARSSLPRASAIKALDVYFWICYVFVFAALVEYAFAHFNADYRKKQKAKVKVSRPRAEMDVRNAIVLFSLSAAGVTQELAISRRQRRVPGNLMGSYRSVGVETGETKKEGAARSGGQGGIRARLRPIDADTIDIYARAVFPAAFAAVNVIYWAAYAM
# Excerpt: (§5) Aim: the aim of this project was to study the effect of 3α-ethynyl-3β-hydroxy-5α-androstan-17-one and the positive GABAA receptor modulator THDOC on GABA-mediated current response, at human α1β2γ2L, α2β3γ2S, α4β3δ and α5β3γ2L subunit GABAA receptors.
# (§6) Study design: The current response mediated by chloride ion flux through the GABAA receptors expressing the α1β2γ2L, α2β3γ2S, α3β3γ2L, α4β3δ and α5β3γ2L subunit was studied with the use of patch clamp technique combined with the Dynaflow™ application system and the Resolve chip. This provides rapid applications of and removal of substances. The material, protocol and methods were identical to the ones used in Examples 1 and 2. 1 μM 3α-ethynyl-3β-hydroxy-5α-androstan-17-one was studied on GABA mediated current response at α1β2γ2L, α2β3γ2S, α4β3δ and α5β3γ2L GABAA receptor subtypes (FIG. 4, Table 6). In addition, the effect of 1-1000 nM THDOC was studied on GABA mediated current response at the α1β2γ2L, α3β2γ2, and α5β3γ2L receptor subtypes (Table 8). The binding site of THDOC is in the […] region of the receptor. To achieve stable response, the cells were exposed to steroid (THDOC) in 20 seconds before GABA application.
# (§7) The amount GABA used depends on the receptor subtype intra or extra-synaptic type, α1β2γ2L=30 μM; α2β3γ2S=45 μM; α4β3δ=1 μM and α5β3γ2L=0.3 μM GABA.
# [5] = molecular target: T4, human α5β3γ2L GABAA receptor (Homo sapiens, UniProt P18507+P28472+P31644); experiment: Patch-clamp (Dynaflow) of GABA-mediated current at α5β3γ2L GABAA receptor; assay type: cell-based
# T4 construct: expressed in transfected cells
# T4 sequence (P31644 32-462): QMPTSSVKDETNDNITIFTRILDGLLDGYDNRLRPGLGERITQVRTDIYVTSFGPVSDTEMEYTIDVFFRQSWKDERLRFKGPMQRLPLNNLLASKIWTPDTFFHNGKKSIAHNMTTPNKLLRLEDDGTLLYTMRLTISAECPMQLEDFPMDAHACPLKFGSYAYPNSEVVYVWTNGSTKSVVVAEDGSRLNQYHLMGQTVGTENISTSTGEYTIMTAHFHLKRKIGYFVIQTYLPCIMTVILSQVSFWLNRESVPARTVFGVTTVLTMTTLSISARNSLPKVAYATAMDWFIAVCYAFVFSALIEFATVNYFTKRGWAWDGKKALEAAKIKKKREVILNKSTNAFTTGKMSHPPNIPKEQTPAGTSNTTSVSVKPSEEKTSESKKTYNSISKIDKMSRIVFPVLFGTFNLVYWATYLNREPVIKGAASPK
# T4 sequence (P28472 26-473): as the sequence (P28472 26-473) above
# T4 sequence (P18507 40-475): as the sequence (P18507 40-475) above
# Excerpt: as §5, §6, §7
# (§8) THDOC: The following standard protocol was used for the different receptor subtypes: • α1β2γ2L: 20 s preincubation of 30-1000 nM THDOC 40 ms application of 30 μM GABA±steroids. • α3β2γ2: 20 s preincubation of 1-1000 nM THDOC followed by 1 s application of 100 μM GABA±steroids. • α5β3γ2L: 20 s preincubation of 30-1000 nM THDOC followed by 6 s application of 0.3 μM GABA±steroids.
# [6] = molecular target: α3β2γ2 GABAA receptor subtype (Homo sapiens, UniProt P28472+P34903); experiment: Patch-clamp (Dynaflow), THDOC on GABA-mediated current at α3β2γ2 receptor subtype; assay type: cell-based; conditions: 1-1000 nM THDOC 20 s preincubation, 100 μM GABA 1 s, read-out: Emax for effect on GABA mediated current response
# Chain of α3β2γ2 GABAA receptor subtype (P34903 29-492): as the sequence (P34903 29-492) above
# Chain of α3β2γ2 GABAA receptor subtype (P28472 26-473): as the sequence (P28472 26-473) above
# Chain of α3β2γ2 GABAA receptor subtype (P18507 40-475 partner): as the sequence (P18507 40-475) above
# Method: as §6, §8
# [7] = 1 mg/kg s.c. + 5 mg/kg progesterone + 10 μg/kg 17β-estradiol
# [8] = 5 mg/kg s.c. + 5 mg/kg progesterone + 10 μg/kg 17β-estradiol
smiles,measurement,setting,value
C#C[C@]1(O)CC[C@@]2(C)[C@@H](CC[C@@H]3[C@@H]2CC[C@]2(C)C(=O)CC[C@@H]32)C1 [3α-ethynyl-3β-hydroxy-5α-androstan-17-one],"Effect on 100 μM GABA-mediated current response, Mean ± SEM %","[1]; 0.003 μM compound + 100 μM GABA, α3β3γ2L",+2.5 ± 2.9%
same,"Own effect, Baseline shift","[1]; 0.003 μM compound, absence of GABA, α3β3γ2L",−1.0 ± 0.4 pA
same,"Effect on 100 μM GABA-mediated current response, Mean ± SEM %","[1]; 0.01 μM compound + 100 μM GABA, α3β3γ2L",−3.0 ± 2.3%
same,"Own effect, Baseline shift","[1]; 0.01 μM compound, absence of GABA, α3β3γ2L",−0.7 ± 0.7 pA
same,"Effect on 100 μM GABA-mediated current response, Mean ± SEM %","[1]; 0.03 μM compound + 100 μM GABA, α3β3γ2L",−2.0 ± 1.0%
same,"Own effect, Baseline shift","[1]; 0.03 μM compound, absence of GABA, α3β3γ2L",−0.8 ± 1.2 pA
same,"Effect on 100 μM GABA-mediated current response, Mean ± SEM %","[1]; 0.1 μM compound + 100 μM GABA, α3β3γ2L",−4.0 ± 3.0%
same,"Own effect, Baseline shift","[1]; 0.1 μM compound, absence of GABA, α3β3γ2L",−1.0 ± 0.8 pA
same,"Effect on 100 μM GABA-mediated current response, Mean ± SEM %","[1]; 0.3 μM compound + 100 μM GABA, α3β3γ2L",−10% and −10 ± 2.3%
same,"Own effect, Baseline shift","[1]; 0.3 μM compound, absence of GABA, α3β3γ2L",+0.9 ± 0.5 pA
same,"Own effect, Baseline shift","[1]; 1 μM compound, absence of GABA, α3β3γ2L",−1.2 ± 0.5 pA
same,"Effect on 100 μM GABA-mediated current response, Mean ± SEM %","[1]; 3 μM compound + 100 μM GABA, α3β3γ2L",−74 ± 0.9%
same,"Own effect, Baseline shift","[1]; 3 μM compound, absence of GABA, α3β3γ2L",−0.4 ± 0.4 pA
same,"Effect on 100 μM GABA-mediated current response, Mean ± SEM %","[1]; 10 μM compound + 100 μM GABA, α3β3γ2L",−76 ± 1.9%
same,"Own effect, Baseline shift","[1]; 10 μM compound, absence of GABA, α3β3γ2L",+1.1 + 2.4 pA
same,Activation of the α3β3γ2L GABAA receptor in absence of GABA,"[1]; 0.003-10 μM, absence of GABA",do not activate
same,Imax on 100 μM GABA-mediated current response,"[1]; 0.003-10 μM, best fit curve, α3β3γ2L",−78%
same,IC50,"[1]; 0.003-10 μM, best fit curve, α3β3γ2L, read-out: IC50 on 100 μM GABA-mediated current response",800 nM
same,Antagonism of 100 nM THDOC-enhancement at α1β2γ2,[2]; 1 μM compound + THDOC + GABA,no significant agonistic or antagonistic effect; also recorded: No effect
same,Weight difference compared to vehicle (Mean±SE),[3]; [7],-33 ± 4.4 g
same,Weight difference versus E+P control rats (Mean±SE),[3]; [7],-23.9 ± 4.4 g
same,Weight difference compared to vehicle (Mean±SE),[3]; [8],-29.6 ± 5.2 g
same,Weight difference versus E+P control rats (Mean±SE),[3]; [8],-20.4 ± 5.2 g
same,Difference in weight after 10 days of treatment compared to vehicle,"[3]; s.c., 10 days of treatment",over 20%
same,Effect as a GAMSA or GAMS,GABAA receptor,no effect
"C[C@]12CC[C@@H](O)C[C@@H]1CC[C@@H]1[C@@H]2CC[C@]2(C)[C@@H](C(=O)CO)CC[C@@H]12 [THDOC, 3α, 21-dihydroxy-5α-pregnan-20-one]",Emax,"[2]; HEK293, α1β2γ2L, 30-1000 nM THDOC 20 s preincubation, 30 μM GABA 40 ms, read-out: Emax for effect on GABA mediated current response",115%
same,Effect on GABA-mediated current at α1β2γ2L (in words),[2]; agonist effect,significantly enhances
same,EC50,"[2]; α1β2γ2L, 30-1000 nM THDOC 20 s preincubation, 30 μM GABA 40 ms, read-out: EC50 for effect on GABA mediated current response",70 nM
same,Effect on GABA-mediated current at α4β3δ (in words),[4],significantly enhances
same,Effect on GABA-mediated current at α5β3γ2L (in words),[5]; agonist effect,significantly enhances
same,EC50,"[5]; α5β3γ2L, 30-1000 nM THDOC 20 s preincubation, 0.3 μM GABA 6 s, read-out: EC50 for effect on GABA mediated current response",68 nM
same,Emax,"[5]; α5β3γ2L, 30-1000 nM THDOC 20 s preincubation, 0.3 μM GABA 6 s, read-out: Emax for effect on GABA mediated current response",131%
same,Emax,[6],80%
